Reference: ChEMBL document CHEMBL1134252, “Reaction of Lys-Tyr-Lys triad mimics with benzylpenicillin: insight into the role of Tyr150 in class C beta-lactamase” (Bioorg Med Chem Lett, 2001)

Tests used:
[1] = Time taken by compound for 10% decrease in benzyl-penicillin concentration; assay type: ADME
[2] = pKa1 value determined; assay type: physicochemical; details: read-out: pKa1
[3] = pKa2 value determined; assay type: physicochemical; details: read-out: pKa2

| Time [1] | pKa [2] | pKa [3] | Structure (SMILES) |
| --- | --- | --- | --- |
| 2.45 h | 6.4 | 9.7 | Cc1cc(CNCCO)c(O)c(CNCCO)c1 |
| 1.38 h | 7 | 9.7 | Cc1cc(CN)c(O)c(CN)c1 |

More lines, now with the values behind:

| Structure (SMILES) | Time [1] | pKa [2] | pKa [3] |
| --- | --- | --- | --- |
| Cc1ccc(O)c(CN)c1 | 8.25 h | 8.7 | – |
| COc1c(CN)cc(C)cc1CN | 44.9 h | 8.5 | 10.2 |
| Cc1cc([C@@H](N)CO)c(O)c([C@@H](N)CO)c1 | 3.6 h | 6.3 | 9 |
